Where a name gives a salt, the structure may show the parent alone.

In this assay the target is T1, hNET (Homo sapiens, UniProt P23975).
T1 construct: expressed in transfected cells; host or cells: MDCK-Net6 (MDCK cells stably transfected with hNET)
T1 sequence (P23975 whole entry): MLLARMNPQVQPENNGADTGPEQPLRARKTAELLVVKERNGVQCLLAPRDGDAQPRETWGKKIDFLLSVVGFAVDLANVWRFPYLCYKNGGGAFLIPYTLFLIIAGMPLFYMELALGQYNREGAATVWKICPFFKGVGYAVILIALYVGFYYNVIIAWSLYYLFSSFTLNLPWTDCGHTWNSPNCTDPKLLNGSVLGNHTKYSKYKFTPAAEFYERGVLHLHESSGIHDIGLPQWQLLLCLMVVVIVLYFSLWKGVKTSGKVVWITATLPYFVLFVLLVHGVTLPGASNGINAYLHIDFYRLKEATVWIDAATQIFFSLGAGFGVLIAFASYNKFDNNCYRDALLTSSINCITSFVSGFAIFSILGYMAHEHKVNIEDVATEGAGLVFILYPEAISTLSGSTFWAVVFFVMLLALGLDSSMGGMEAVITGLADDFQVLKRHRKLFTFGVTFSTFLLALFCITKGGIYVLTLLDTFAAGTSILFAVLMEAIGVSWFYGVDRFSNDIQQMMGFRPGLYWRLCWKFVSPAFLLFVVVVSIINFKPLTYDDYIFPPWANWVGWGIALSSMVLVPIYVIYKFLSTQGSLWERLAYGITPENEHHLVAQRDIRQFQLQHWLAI
As to the kind of experiment: Norepinephrine (NE) uptake assay in MDCK-Net6 cells. It counts as cell-based. The note with it: 1 μM test compound; MDCK-Net6 cells stably transfected with human hNET; [3H]NE uptake. The method, then: Cells were plated at 300,000 T75 flask and cells were split twice weekly. […] Cells were plated at 250,000 cells/T75 flask and split twice weekly.
On day 1, cells were plated at 3,000 cells/well in growth medium and maintained in a cell incubator (37° C., 5% CO2). On day 2, growth medium was replaced with […] of assay buffer (25 mM HEPES; 120 mM NaCl; 5 mM KCl; 2.5 mM CaCl2; 1.2 mM MgSO4; 2 mg/ml glucose (pH 7.4, 37° C.)) containing 0.2 mg/ml ascorbic acid and […]. Plates containing cells with […] of assay buffer were equilibrated for 10 minutes at 37° C. prior to addition of compounds. A stock solution of desipramine was prepared in DMSO (10 mM) and delivered to triplicate wells containing cells for a final test concentration of 1 μM. Data from these wells were used to define non-specific NE uptake (minimum NE uptake). Test compounds were prepared in DMSO (10 mM) and diluted in assay buffer according to test range (1 to 10,000 nM). Twenty-five microliters of assay buffer (maximum NE uptake) or test compound were added directly to triplicate wells containing cells in 200 μl of assay buffer. The cells in assay buffer with test compounds were incubated for 20 minutes at 37° C. To initiate the NE uptake, [^3H]NE diluted in assay buffer (120 nM final assay concentration) was delivered in 25 μl aliquots to each well and the plates were incubated for 5 minutes (37° C.). The reaction was terminated by decanting the supernatant from the plate. The plates containing cells were washed twice with 200 μl assay buffer (37° C.) to remove free radioligand. The plates were then inverted, left to dry for 2 minutes, then reinverted and air-dried for an additional 10 minutes. The cells were lysed in 25 μl of 0.25 N NaOH solution (4° C.), placed on a shake table and vigorously shaken for 5 minutes. After cell lysis, 75 μl of scintillation cocktail was added to each well and the plates were sealed with film tape. The plates were returned to the shake table and vigorously shaken for a minimum of 10 minutes to ensure adequate partitioning of organic and aqueous solutions. The plates were counted in a Wallac Microbeta counter (PerkinElmer) to collect the raw cpm data.
For each experiment, a data stream of cpm values collected from the Wallac Microbeta counter was downloaded to a Microsoft Excel statistical application program. Calculations of EC50 values were made using the transformed-both-sides logistic dose response program written by Wyeth Biometrics Department.
What is called inhibition is the share of the control response that was lost under treatment. Read a high inhibition as a response far below the control. As to `CNC[C@@H](O)[C@H](c1ccc(OC)cc1)N(C)c1ccc(Cl)cc1` (racemic) [Example 25, (1RS,2SR)-1-[(4-chlorophenyl)(methyl)amino]-1-(4-methoxyphenyl)-3-(methylamino)propan-2-ol hydrochloride], 1 µM produced 97% inhibition.

Consider `CCNC[C@@H](O)[C@H](c1ccc(OC)cc1)N(C)c1ccc(Cl)cc1` (racemic) [Example 29, (1RS,2SR)-1-[(4-chlorophenyl)(methyl)amino]-3-(ethylamino)-1-(4-methoxyphenyl)propan-2-ol hydrochloride], for which the inhibition at 1 µM is 95%.

For the molecule `COc1ccc([C@@H]([C@H](O)CN)N(C)c2ccc(Cl)cc2)cc1` (racemic) [Example 6, (1RS,2SR)-3-amino-1-[(4-chlorophenyl)(methyl)amino]-1-(4-methoxyphenyl)propan-2-ol hydrochloride], the inhibition at 1 µM stood at 92%.

Turning to `Cc1cccc(N(C)[C@@H](c2ccccc2)[C@H](O)CN)c1` (racemic) [Example 2, (1RS,2SR)-3-amino-1-[methyl(3-methylphenyl)amino]-1-phenylpropan-2-ol hydrochloride], testing at 1 µM gave an inhibition of 92%.

The molecule `CCNC[C@@H](O)[C@H](c1cccc(Cl)c1)N(C)c1ccccc1` (racemic) [Example 30, (1RS,2SR)-1-(3-chlorophenyl)-3-(ethylamino)-1-[methyl(phenyl)amino]propan-2-ol hydrochloride] showed an inhibition at 1 µM of 56%.

On to `CNC[C@@H](O)[C@H](c1ccc(OC)cc1)N(C)c1cccc(F)c1` (racemic) [Example 24, (1RS,2SR)-1-[(3-fluorophenyl)(methyl)amino]-1-(4-methoxyphenyl)-3-(methylamino)propan-2-ol hydrochloride], for which at 1 µM the inhibition was 92%.

`COc1cccc(N(C)[C@@H](c2ccccc2)[C@H](O)CN)c1` (racemic) [Example 4, (1RS,2SR)-3-amino-1-[(3-methoxyphenyl)(methyl)amino]-1-phenylpropan-2-ol hydrochloride] registered an inhibition at 1 µM of 86%.

`Cc1ccc(N(C)[C@@H](c2ccccc2)[C@H](O)CN(C)C)cc1` (racemic) [Example 32, (1RS,2SR)-3-(dimethylamino)-1-[methyl (4-methylphenyl)amino]-1-phenylpropan-2-ol hydrochloride] yielded an inhibition at 1 µM of 95%.

Turning to `CN(c1ccccc1Cl)[C@@H](c1ccccc1)[C@H](O)CN` (racemic) [Example 3, (1RS,2SR)-3-amino-1-[(2-chlorophenyl)(methyl)amino]-1-phenylpropan-2-ol hydrochloride], 1 µM produced 45% inhibition.

Molecule `CNC[C@@H](O)[C@H](c1ccc(OC)cc1)N(C)c1ccc(OC)cc1` (racemic) [Example 26, (1RS,2SR)-1-(4-methoxyphenyl)-1-[(4-methoxyphenyl)(methyl)amino]-3-(methylamino)propan-2-ol hydrochloride] displayed an inhibition at 1 µM of 75%.

Take `CCNC[C@@H](O)[C@H](c1ccc(Cl)cc1)N(C)c1ccccc1` (racemic) [Example 31, (1RS,2SR)-1-(4-chlorophenyl)-3-(ethylamino)-1-[methyl(phenyl)amino]propan-2-ol hydrochloride]: at 1 µM the inhibition was 88%.

The molecule `CNC[C@@H](O)[C@H](c1cccc(F)c1)N(C)c1ccc(Cl)cc1` (racemic) [Example 23, (1RS,2SR)-1-[(4-chlorophenyl)(methyl)amino]-1-(3-fluorophenyl)-3-(methylamino)propan-2-ol hydrochloride] displayed an inhibition at 1 µM of 99%.

`CCNC[C@@H](O)[C@H](c1ccccc1)N(C)c1ccc(C)cc1` (racemic) [Example 28, (1RS,2SR)-3-(ethylamino)-1-[methyl(4-methylphenyl)amino]-1-phenylpropan-2-ol hydrochloride] showed an inhibition at 1 µM of 71%.

Source of the values: patent US7671238B2, “Arylamino-arylpropanolamine derivatives and methods of their use” (Wyeth LLC, priority 2006, dated 2010).
